Consider eight molecules from EP0684037B1, “Deodorant compositions” (UNILEVER PLC, priority 1994, dated 1995).

One data set concerns the target T1, lipoxidase (EC1.13.1.13) (Glycine max, UniProt P08170).
T1 sequence (P08170 1-839): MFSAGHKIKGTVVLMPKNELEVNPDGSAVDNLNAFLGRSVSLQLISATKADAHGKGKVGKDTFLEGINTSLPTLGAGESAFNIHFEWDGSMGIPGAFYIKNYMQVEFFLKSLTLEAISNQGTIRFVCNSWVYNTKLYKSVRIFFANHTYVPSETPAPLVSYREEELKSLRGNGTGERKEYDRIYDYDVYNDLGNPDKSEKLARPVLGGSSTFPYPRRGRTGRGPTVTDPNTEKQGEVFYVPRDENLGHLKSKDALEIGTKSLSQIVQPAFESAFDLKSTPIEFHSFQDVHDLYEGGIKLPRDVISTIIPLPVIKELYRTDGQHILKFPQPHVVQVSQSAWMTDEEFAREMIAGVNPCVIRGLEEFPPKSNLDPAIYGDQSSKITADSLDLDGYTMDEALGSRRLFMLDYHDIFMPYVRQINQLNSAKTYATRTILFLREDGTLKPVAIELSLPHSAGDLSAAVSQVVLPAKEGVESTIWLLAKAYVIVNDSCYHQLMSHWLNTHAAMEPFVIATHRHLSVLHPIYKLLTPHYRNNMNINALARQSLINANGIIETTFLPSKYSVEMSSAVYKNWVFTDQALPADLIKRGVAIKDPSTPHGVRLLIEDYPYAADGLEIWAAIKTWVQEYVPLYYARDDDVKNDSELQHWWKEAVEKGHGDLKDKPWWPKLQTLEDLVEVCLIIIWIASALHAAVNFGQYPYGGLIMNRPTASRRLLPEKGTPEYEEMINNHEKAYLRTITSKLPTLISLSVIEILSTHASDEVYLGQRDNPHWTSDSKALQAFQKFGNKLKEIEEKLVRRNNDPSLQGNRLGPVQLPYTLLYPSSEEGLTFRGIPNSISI
Description: Lipoxidase Inhibition Test (inhibition of the oxidation of linoleic acid by lipoxidase). The format is biochemical. The conditions noted are these: Lipoxidase Inhibiting Capacity; 0.5% by weight solution in ethanol of the material in test substrate solution; borate buffer pH 9.0; 234 nm. As to the method:
In this test the capacity of a material to inhibit the oxidation of linoleic acid by lipoxidase (EC1.13.1.13) to form a hydroperoxide is measured.
Aqueous 0.2M sodium borate solution (pH 9.0) is used as buffer solution.
A control substrate solution is prepared by dissolving linoleic acid (2.0 ml) in absolute ethanol (60 ml), diluting with distilled water to 100 ml and then adding borate buffer (100 ml) and absolute ethanol (300 ml).
A test substrate solution is prepared in the same way as the control substrate solution except that for the absolute ethanol (300 ml) is substituted the same volume of a 0.5% by weight solution in ethanol of the material to be tested.
A solution of the enzyme lipoxidase in the borate buffer and having an activity within the range of from 15,000 to 40,000 units per ml is prepared.
The activity of the lipoxidase in catalysing the oxidation of linoleic acid is first assayed spectrophotometrically using the control. An automatic continuously recording spectrophotometer is used and the increase in extinction at 234 nm (the peak of hydroperoxide) is measured to follow the course of oxidation, the enzyme concentration used being such that it gives an increase in optical density (ΔOD) at 234 nm within the range of from 0.6 to 1.0 units per minute. The following ingredients are placed in two 3 ml cuvettes:
The lipoxidase solution is added to the control cuvette last and the reaction immediately followed spectrophotometrically for about 3 minutes, with recording of the increase in optical density at 234 nm as a curve on a graph.
The capacity of a material to inhibit the oxidation is then measured using a test sample containing enzyme, substrate and a deodorant material. The following ingredients are placed in two 3 ml cuvettes.
The lipoxidase solution is added to the test sample cuvette last and the course of the reaction immediately followed as before.
The lipoxidase-inhibiting capacity of the material is then calculated from the formula 100 (S1-S2)/S1, where S1 is the slope of the curve obtained with the control and S2 is the slope of the curve obtained with the test sample, and thus expressed as % inhibitor. A material that gives at least 50% inhibition in the test is hereafter referred to as having a lipoxidase-inhibiting capacity of at least 50%.

The nature of data set [1]: Morpholine Test (depression of the partial vapour pressure of morpholine, Raoult variance ratio). The format is physicochemical. The conditions noted are these: morpholine (0.25 g) and material (1 g), 37°C, headspace GC. As to the method:
In this test the capacity of a material to depress the partial vapour pressure of morpholine more than that required by Raoult's Law is measured. Substances that undergo chemical reaction with morpholine, for example aldehydes, are to be regarded as excluded from the test.
Into a sample bottle of capacity 20 ml is introduced morpholine ([…]), the bottle fitted with a serum cap and then maintained at 37°C for 30 minutes for equilibrium to be reached. The gas in the headspace of the bottle is analysed by piercing the serum cap with a capillary needle through which nitrogen at 37°C is passed to increase the pressure in the bottle by a standard amount and then allowing the excess pressure to inject a sample from the headspace into gas chromatograph apparatus, which analyses it and provides a chromatographic trace curve with a peak due to morpholine, the area under which is proportional to the amount of morpholine in the sample.
The procedure is repeated under exactly the same conditions using instead of morpholine alone, morpholine (0.25 g) and the material to be tested (1 g); and also using the material (1 g) without the morpholine to check whether it gives an interference with the morpholine peak (which is unusual).
The procedure is repeated until reproducible results are obtained. The areas under the morpholine peaks are measured and any necessary correction due to interference by the material is made.
A suitable apparatus for carrying out the above procedure is a Perkin-Elmer Automatic GC Multifract F40 for Head Space Analysis. Further details of this method are described by Kolb in "CZ-Chemie-Technik", Vol 1, No 2, 87-91 (1972) and by Jentzsch et al in "Z. Anal. Chem." 236, 96-118 (1968).
The measured areas representing the morpholine concentration are proportional to the partial vapour pressure of the morpholine in the bottle headspace. If A is the area under the morpholine peak when only morpholine is tested and A' is the area due to morpholine when a material is present, the relative lowering of partial vapour pressure of morpholine by the material is given by 1-A'/A.
According to Raoult's Law, if at a given temperature the partial vapour pressure or morpholine in equilibrium with air above liquid morpholine is p, the partial vapour pressure p' exerted by morpholine in a homogeneous liquid mixture of morpholine and material at the same temperature is pM/(M+PC), where M and PC are the molar concentrations of morpholine and material.
The extend to which the behaviour of the mixture departs from Raoult's Law is given by the ratio (1-A'/A)/(87/(87+m/4)) [formula]
The above ratio, which will be referred to as the Raoult variance ratio, is calculated from the test results. Where a material is a mixture of compounds, a calculated or experimentally determined average molecular weight is used for m. A material that depresses the partial vapour pressure of morpholine by at least 10% more than that required by Raoult's Law in the Morpholine Test is one in which the Raoult variance ratio is at least 1.1.

As to `O=C(OCc1ccccc1)c1ccccc1O` [Benzyl salicylate], on lipoxidase (EC1.13.1.13), the LIC value was 0%. Also, the RVR value in data set [1] worked out at 1.58.

On lipoxidase (EC1.13.1.13), `O=c1ccc2ccccc2o1` [Coumarin] yielded an LIC value of 58%. Also, the RVR value in data set [1] is given as 1.22.

Molecule `CCOc1cc(C=O)ccc1O` [Ethyl vanillin] displayed an LIC value at lipoxidase (EC1.13.1.13) of 100%. In data set [1], the RVR value is recorded as 1.43.

Molecule `COC(=O)c1c(C)cc(O)c(C)c1O` [LRG 201] had an LIC value at lipoxidase (EC1.13.1.13) of 100%. Besides, the RVR value in data set [1] came to 1.21.

As for `OCCc1ccccc1` [Phenylethyl alcohol], at lipoxidase (EC1.13.1.13), the LIC value stood at 22%. For the same molecule, the RVR value in data set [1] amounted to 1.24.

In turn, `CC(=O)OC1CCC(C(C)(C)C)CC1` (centres unmarked) [p-t-Butyl cyclohexyl acetate] yielded an LIC value at lipoxidase (EC1.13.1.13) of 54%. Also, the RVR value in data set [1] turned out to be 0.98.

In the case of `CC(C=O)Cc1ccc(C(C)(C)C)cc1` (stereo not drawn) [p-t-Butyl-α-methyl hydrocinnamic aldehyde], at lipoxidase (EC1.13.1.13), the LIC value was determined as 74%.

As to `COc1ccc2ccccc2c1` [β-Naphthyl methyl ether], the LIC value at lipoxidase (EC1.13.1.13) worked out at 100%.
